# Columns and labels:
# Assay type in all cases: cell-based
# [1] = system: A549 lung cancer cells; assay: Transwell migration assay of A549 cells expressing FoxM1 WT or point mutants; conditions: Transwell, 72 hours, control set to 1; TGF-β 5 ng/ml positive control
# Method: To examine the effects of FoxM1 WT, phosphorylation, and non-phosphorylated point mutants on the motility of cancer cells, the migration assay was performed in A549 lung cancer cells expressing mutant proteins.
# Specifically, 5×10^4 cells of lung cancer cells A549 expressing each of WT, phosphorylation, and non-phosphorylated point mutant of FoxM1 were seeded in an 8.0 μm, 24 well insert, and the inserts were placed in a 24-well plate after medium with 10% fetal bovine serum (FBS) was dispensed in the 24-well plate. For the positive control, 0.5 ml of RPMI1640 (10% FBS) containing 5 ng/ml of TGF-β was used. After 72 hours from cell seeding, 500 μl of 4% paraformaldehyde was dispensed, washed three times with 1×PBS, and stained with 0.05% crystal violet solution for 5 minutes. After 5 minutes, the cells were washed five times with 1×PBS, and the staining intensity was measured using the Odyssey infrared imaging system.
# Specifically, 5×10^4 cells of lung cancer cells A549 expressing control and FoxM1 WT were seeded in an 8.0 μm, 24 well insert, and the inserts were placed in a 24-well plate after medium with 10% fetal bovine serum (FBS) was dispensed in the 24-well plate. For the positive control, 0.5 ml of RPMI1640 (10% FBS) containing 5 ng/ml of TGF-β was added and used. After 72 hours from cell seeding, 500 μl of 4% paraformaldehyde was dispensed, washed three times with 1×PBS, and stained with 0.05% crystal violet solution for 5 minutes. After 5 minutes, the cells were washed five times with 1×PBS, and the staining intensity was measured using the Odyssey infrared imaging system.
# [2] = system: A549 lung cancer cells; assay: Migration assay of TGF-β-treated A549 cells treated with peptide; conditions: TGF-β 5 ng/ml, 48 hours
# Method: To determine the effects of treatment of the FoxM1 non-phosphorylated point mutant peptide on cancer cell motility in the metastatic environment treated with TGF-β, a migration assay was performed.
# Specifically, 5×10^4 cells of A549 lung cancer cells were seeded in an 8.0 μm, 24 well insert, and the inserts were placed in a 24-well plate after medium with 10% fetal bovine serum (FBS) was dispensed in the 24-well plate. For the positive control, 0.5 ml of RPMI1640 (10% FBS) containing 5 ng/ml of TGF-β was dispensed, and 5 μM of the non-phosphorylated point mutant peptide was treated simultaneously. After 48 hours from cell seeding, 500 μl of 4% paraformaldehyde was dispensed into the plate, and the plate was washed three times with 1×PBS and stained with 0.05% crystal violet solution for 5 minutes. After 5 minutes, the plate was washed with 1×PBS five times, and the stained intensity was measured using the Odyssey infrared imaging system. When the stained intensity of the control group was set to 1, the relative stained intensity of each experimental group was represented in a graph.
# [3] = system: A549 lung cancer cells; assay: Wound healing assay of A549 cells expressing FoxM1 phosphorylated point mutants; conditions: distance in the control group at 72 h set to 0%
# Method: To observe the effects of phosphorylation point mutations on the motility of cancer cells, a wound healing assay was performed in lung cancer cells A549 expressing FoxM1 wild type (WT), phosphorylated point mutants S25E, S361E, and S715E, and a simultaneous triple-point mutation EEE protein.
# Specifically, cells expressing the gene of FoxM1 point mutant by the lentivirus system were seeded into 6-well plates at 1×10^5 cells/well each. 24 hours after cell seeding, scratches were made at regular intervals using a 200 μl-pipette tip. In addition, A549 cells treated with mock as a negative control (Mock) and 5 ng/ml of TGF-β as a positive control were used. […] In addition, the distance in the control group at 72 h was set to 0%, and the relative distance was represented as a bar graph (FIG. 4G).
substance,measurement,setting,value
TGF-β [reference compound],"cancer cell migration (stained intensity), increase compared to the control group",[1],approximately 4 fold
same,stained intensity (migration) compared to the control group,[2],4 folds
same,relative healing distance (motility) at 72 h,[3],51%
